According to paper PMC5531531, “A synthetic cationic antimicrobial peptide inhibits inflammatory response and the NLRP3 inflammasome by neutralizing LPS and ATP” (PLoS ONE, 2017):
No end group written: not given here.

System: C57BL/6 mice injected with E. coli LPS
Assay type: in vivo, mouse
Procedure: The expression levels of IL-1β, IL-6 and TNF-α in the conditional medium, sera and lavage fluids were measured by ELISA as described in detail previously.
The protein expression levels of iNOS, COX-2, ERK1/2, JNK1/2, p38, IκB-α, PKC, caspase-1 and the phosphorylation levels of ERK1/2, JNK1/2, p38, PKC-α, PKC-δ, IκB-α were determined by Western blotting as described in detail previously.
Experiments were performed on 8-week-old male C57BL/6 mice purchased from the National Laboratory Animal Center (Taipei, Taiwan). The mice were randomized into the following four groups: Group I: control, intraperitoneal injection of 100 μl of sterile PBS, n = 3; Group II: LPS, intraperitoneal injection of 100 μl of sterile PBS containing E. coli LPS (10 mg/kg), n = 5; Group III: GW-A2+LPS, intraperitoneal injection of 100 μl of sterile PBS containing E. coli LPS (10 mg/kg) and GW-A2 (10 mg/kg), n = 5. Group IV: AMP, intraperitoneal injection of 100 μl of sterile PBS containing GW-A2 (10 mg/kg), n = 3. Sera were collected for analysis at 4 h after LPS injection. Peritoneal lavages, lungs and livers were collected for analysis at 24 h after LPS injection.
Lungs, livers and kidney were fixed in 10% formalin and paraffin-embedded, then 4 um thick sections were cut and stained with hematoxylin and eosin was described in detail previously. Scoring of the polymorphonuclear neutrophils (PMN) infiltration was determined by counting in 5 randomly sampled fields by light microscopy at a magnification of x400 evaluated by a pathologist in National Defense Medical Center (Taipei, Taiwan).

[1] = i.p. E. coli LPS 10 mg/kg with GW-A2 10 mg/kg, n = 5, sera 4 h after LPS, ELISA, Fig 5A

With GAKYAKIIYNYLKKIANALW [GW-A2] the “IL-1β level in the sera” value [1] was “significantly reduced”, the “IL-6 level in the sera” value [1] was “significantly reduced” and the “TNF-α level in the sera” value [1] was “significantly reduced”. The “Infiltration of PMN into the lung and liver” value (i.p. LPS 10 mg/kg with GW-A2 10 mg/kg, 24 h, H&E, 5 fields x400, Fig 5D, 5E) was “reduced”, the “Expression levels of iNOS, COX-2 and NLRP3 in the lung and liver” value (i.p. LPS 10 mg/kg with GW-A2 10 mg/kg, tissues 24 h after LPS, Western blot, Fig 5C) was “reduced” and the “Adverse effects in GW-A2-injected mice” value (mouse, in vivo, ip, 10 mg/kg) was “no adverse effects were observed”. For the same sequence, the “Behaviors of GW-A2-injected mice versus control mice” value (mouse, in vivo, ip, 10 mg/kg) was “not significantly different”.
